7 compounds from ChEMBL document CHEMBL1811859, “Second-generation sulfonamide inhibitors of D-glutamic acid-adding enzyme: activity optimisation with conformationally rigid analogues of D-glutamic acid” (Eur J Med Chem, 2011) can be followed below.

In assay [1] the test system is Escherichia coli. The experiment in a line: Inhibition of Escherichia coli MurD ligase assessed as residual activity at 500 uM after 30 mins.
Assay [2] deals with Staphylococcus aureus. The experiment in a line: Antimicrobial activity against methicillin-resistant Staphylococcus aureus ATCC 43300 by broth dilution method. The assay is classed as functional.
A further assay deals with Enterococcus faecium. The experiment in a line: Antimicrobial activity against Enterococcus faecium ATCC 19434 by broth dilution method. The assay is classed as functional.
A further assay concerns Pseudomonas aeruginosa. The experiment in a line: Antimicrobial activity against Pseudomonas aeruginosa ATCC 27853 by broth dilution method. Type of assay: functional. In general terms: Broth dilution looks for growth in wells or tubes with falling amounts of substance.
In assay [3] the test system is Streptococcus pneumoniae. Kind of assay: Antimicrobial activity against Streptococcus pneumoniae D39 by broth dilution method. The assay is classed as functional.
For another assay, the system named is Listeria innocua. Kind of assay: Antimicrobial activity against Listeria innocua ATCC 33090 by broth dilution method. Type of assay: functional.
The subject of assay [4] is Staphylococcus aureus. The experiment in a line: Antimicrobial activity against Staphylococcus aureus ATCC 25923 by broth dilution method. Type of assay: functional.
The subject of assay [5] is Staphylococcus epidermidis. Kind of assay: Antimicrobial activity against Staphylococcus epidermidis ATCC 12228 by broth dilution method. The assay is classed as functional.
In a further assay the test system is Micrococcus luteus. Kind of assay: Antimicrobial activity against Micrococcus luteus ATCC 9314 by broth dilution method. The assay is classed as functional.
Assay [6] concerns Escherichia coli. The experiment in a line: Antimicrobial activity against Escherichia coli ATCC 8739 by broth dilution method. The assay is classed as functional.
Assay [7] concerns Streptococcus pneumoniae. Kind of assay: Antimicrobial activity against Streptococcus pneumoniae ATCC 33400 by broth dilution method. Type of assay: functional.
The next assay deals with Klebsiella pneumoniae. Kind of assay: Antimicrobial activity against Klebsiella pneumoniae ATCC 13883 by broth dilution method. The assay is classed as functional.
The test system of a further assay is Citrobacter freundii. The experiment in a line: Antimicrobial activity against Citrobacter freundii ATCC 8090 by broth dilution method. The assay is classed as functional.
The subject of another assay is Enterococcus hirae. Kind of assay: Antimicrobial activity against Enterococcus hirae ATCC 9790 by broth dilution method. The assay is classed as functional.
The subject of assay [8] is Streptococcus pneumoniae. The experiment in a line: Antimicrobial activity against Streptococcus pneumoniae ATCC 49619 by broth dilution method. Type of assay: functional.
A further assay has as its system Proteus mirabilis. The experiment in a line: Antimicrobial activity against Proteus mirabilis ATCC 29936 by broth dilution method. The assay is classed as functional.
In assay [9] the test system is Enterococcus faecalis. Kind of assay: Antimicrobial activity against Enterococcus faecalis ATCC 19433 by broth dilution method. The assay is classed as functional.
In a further assay the test system is Bacillus subtilis. The experiment in a line: Antimicrobial activity against Bacillus subtilis ATCC 6633 by broth dilution method. The assay is classed as functional.
Assay [10] concerns Staphylococcus aureus. Kind of assay: Antimicrobial activity against methicillin-resistant Staphylococcus aureus PL1 by broth dilution method. The assay is classed as functional.
A further assay relates to Listeria monocytogenes. Kind of assay: Antimicrobial activity against Listeria monocytogenes ATCC 14780 by broth dilution method. The assay is classed as functional.
The subject of assay [11] is Enterococcus faecalis. The experiment in a line: Antimicrobial activity against Enterococcus faecalis ATCC 29212 by broth dilution method. Type of assay: functional.
The nature of assay [12]: Inhibition of Escherichia coli MurD ligase assessed as addition of D-[3H]glu to UDP-N-acetyl-muramoyl-L-alanine.
In assay [13] the test system is Escherichia coli. Kind of assay: Inhibition of Escherichia coli MurD ligase assessed as residual activity at 1 mM after 30 mins.
Assay [14] is described as follows: Inhibition of Escherichia coli MurD ligase assessed as addition of D-[3H]glu to UDP-N-acetyl-muramoyl-L-alanine after 30 mins.

Broadly, the MIC is the lowest concentration found to suppress growth. A high value points to a less susceptible organism. Broadly, the IC50 is the point on the concentration scale where inhibition reaches its midpoint. As a reminder, the Ki is a dissociation constant, usually derived from enzyme kinetics or from competition with a known ligand.

Values after ≈ are worked out from the molar mass of the structure shown.

With `N#Cc1ccc(COc2ccc3cc(S(=O)(=O)N4CCC(C(=O)O)CC4)ccc3c2)c(F)c1`, the Activity in the assay on Escherichia coli [1] was found to be 94%.
`CCCCOc1ccc2cc(S(=O)(=O)Nc3cc(C(=O)O)ccc3C(=O)O)ccc2c1`: the MIC in the assay on Staphylococcus aureus [2], in the assay on Enterococcus faecium, with Pseudomonas aeruginosa, against Streptococcus pneumoniae [3], in the assay with Listeria innocua and against Staphylococcus aureus [4] was more than 512 mg/L throughout. Also, the MIC (in [5]; against Micrococcus luteus; with Escherichia coli [6]; in the assay with Streptococcus pneumoniae [7]; against Klebsiella pneumoniae; with Citrobacter freundii) was more than 512 mg/L throughout. The MIC in the assay with Enterococcus hirae, in the assay on Streptococcus pneumoniae [8], against Proteus mirabilis, against Enterococcus faecalis [9], in the assay on Bacillus subtilis and against Staphylococcus aureus [10] was more than 512 mg/L each time. Moreover, the minimal inhibitory concentration (MIC) in the assay on Listeria monocytogenes and with Enterococcus faecalis [11] was more than 512 mg/L throughout. Also, the Activity in the assay with Escherichia coli [1] was 78%.
On to `CC(=O)N[C@H]1C(OP(=O)(O)O)O[C@H](CO)[C@@H](O)[C@@H]1O[C@H](C)C(=O)N[C@@H](C)P(=O)(O)CC(CCC(=O)O)C(=O)O` (stereo partly specified), for which, in assay [12], the IC50 came to 0.02 µM.
In the case of `N#Cc1ccc(COc2ccc3cc(S(=O)(=O)Nc4cc(C(=O)O)cc(C(=O)O)c4)ccc3c2)c(F)c1`, the MIC against Staphylococcus aureus [2], against Enterococcus faecium, in the assay on Pseudomonas aeruginosa, against Streptococcus pneumoniae [3], with Listeria innocua and in the assay with Staphylococcus aureus [4] was more than 512 mg/L throughout. Moreover, the MIC (in assay [5]; in the assay on Micrococcus luteus; against Escherichia coli [6]; with Streptococcus pneumoniae [7]; in the assay with Klebsiella pneumoniae; against Citrobacter freundii) was more than 512 mg/L in each case. The minimum inhibitory concentration (MIC) in the assay on Enterococcus hirae, with Streptococcus pneumoniae [8], with Proteus mirabilis, against Enterococcus faecalis [9], in the assay with Bacillus subtilis and against Staphylococcus aureus [10] was more than 512 mg/L each time. Also, the minimum inhibitory concentration (MIC) against Listeria monocytogenes and in the assay with Enterococcus faecalis [11] was more than 512 mg/L throughout. In the assay with Escherichia coli [13], the Activity amounted to 2%. In addition, the IC50 in assay [14] was 50 µM. Further, the inhibition constant Ki in [14] amounted to 34 µM.
`CCCCOc1ccc2cc(S(=O)(=O)N3CCC(C(=O)O)CC3)ccc2c1`: the Activity in the assay on Escherichia coli [1] was determined as 97%.
On to `CCCCOc1ccc2cc(S(=O)(=O)Nc3ccc(C(=O)O)cc3C(=O)O)ccc2c1`, for which the MIC in the assay on Staphylococcus aureus [2], with Enterococcus faecium, against Pseudomonas aeruginosa, with Streptococcus pneumoniae [3], in the assay on Listeria innocua and against Staphylococcus aureus [4] was more than 512 mg/L each time. The MIC (in assay [5]; in the assay on Micrococcus luteus; with Escherichia coli [6]; against Streptococcus pneumoniae [7]; against Klebsiella pneumoniae; against Citrobacter freundii) was more than 512 mg/L throughout. For the same compound, the minimum inhibitory concentration (MIC) in the assay on Enterococcus hirae, with Streptococcus pneumoniae [8], in the assay with Proteus mirabilis, against Enterococcus faecalis [9], in the assay with Bacillus subtilis and in the assay with Staphylococcus aureus [10] was more than 512 mg/L in each case. Moreover, the MIC against Listeria monocytogenes and in the assay on Enterococcus faecalis [11] was more than 512 mg/L each time. In the assay with Escherichia coli [13], the Activity was 8%. In assay [14], the 50% inhibitory concentration (IC50) came to 127 µM. Further, the inhibition constant Ki in assay [14] was 87 µM.
For the compound `N#Cc1ccc(COc2ccc3cc(S(=O)(=O)Nc4ccc(CC(=O)O)cc4)ccc3c2)c(F)c1`, the MIC against Staphylococcus aureus [2] was more than 512 mg/L; in the assay with Enterococcus faecium, more than 512 mg/L; against Pseudomonas aeruginosa, more than 512 mg/L; with Streptococcus pneumoniae [3], 64 mg/L (≈ 130 µM); in the assay with Listeria innocua, more than 512 mg/L; with Staphylococcus aureus [4] it was more than 512 mg/L. Besides, the MIC in [5] was more than 512 mg/L; with Micrococcus luteus it was more than 512 mg/L; in the assay with Escherichia coli [6] it was more than 512 mg/L; with Streptococcus pneumoniae [7], 32 mg/L (≈ 65.2 µM); in the assay with Klebsiella pneumoniae, more than 512 mg/L; in the assay on Citrobacter freundii, more than 512 mg/L. Also, the MIC was more than 512 mg/L against Enterococcus hirae; 64 mg/L (≈ 130 µM) with Streptococcus pneumoniae [8]; more than 512 mg/L in the assay on Proteus mirabilis; more than 512 mg/L against Enterococcus faecalis [9]; more than 512 mg/L against Bacillus subtilis; more than 512 mg/L in the assay on Staphylococcus aureus [10]. The minimal inhibitory concentration (MIC) with Listeria monocytogenes and in the assay on Enterococcus faecalis [11] was more than 512 mg/L throughout. Besides, in the assay on Escherichia coli [1], the Activity came out at 64%.
